Laboratory results: ChEMBL document CHEMBL4004838, “Design and synthesis of novel phenyl -1, 4-beta-carboline-hybrid molecules as potential anticancer agents” (Eur J Med Chem, 2017)

Experiments:
Format in all cases: functional
[1] = tested on: MOLT-4; test: Growth inhibition of human MOLT4 cells assessed as cell growth at 0.1 uM incubated for 48 hrs by sulforhodamine B assay relative to control; settings: MOLT-4, 48 h, read-out: Activity
[2] = tested on: RXF 393; test: Growth inhibition of human RXF393 cells incubated for 48 hrs by sulforhodamine B assay; settings: RXF 393, 48 h
[3] = tested on: OVCAR-4; test: Growth inhibition of human OVCAR4 cells assessed as cell growth at 100 uM incubated for 48 hrs by sulforhodamine B assay relative to control; settings: OVCAR-4, 48 h, read-out: Activity
[4] = tested on: DU-145; test: Growth inhibition of human DU145 cells assessed as cell growth at 0.01 uM incubated for 48 hrs by sulforhodamine B assay relative to control; settings: DU-145, 48 h, read-out: Activity
[5] = tested on: LOX IMVI; test: Growth inhibition of human LOXIMVI cells assessed as cell growth at 100 uM incubated for 48 hrs by sulforhodamine B assay relative to control; settings: read-out: Activity
[6] = tested on: HT-29; test: Growth inhibition of human HT-29 cells assessed as cell growth at 100 uM incubated for 48 hrs by sulforhodamine B assay relative to control; settings: HT-29, 48 h, read-out: Activity
[7] = tested on: SR; test: Growth inhibition of human SR cells assessed as cell growth at 1 uM incubated for 48 hrs by sulforhodamine B assay relative to control; settings: read-out: Activity
[8] = tested on: DU-145; test: Growth inhibition of human DU145 cells assessed as cell growth at 1 uM incubated for 48 hrs by sulforhodamine B assay relative to control; settings: DU-145, 48 h, read-out: Activity
[9] = tested on: SK-OV-3; test: Growth inhibition of human SKOV3 cells assessed as cell growth at 0.1 uM incubated for 48 hrs by sulforhodamine B assay relative to control; settings: SK-OV-3, 48 h, read-out: Activity
[10] = tested on: UO-31; test: Growth inhibition of human UO31 cells incubated for 48 hrs by sulforhodamine B assay; settings: UO-31, 48 h
[11] = tested on: HCT-116; test: Growth inhibition of human HCT116 cells assessed as cell growth at 100 uM incubated for 48 hrs by sulforhodamine B assay relative to control; settings: HCT-116, 48 h, read-out: Activity
[12] = tested on: SF-539; test: Growth inhibition of human SF539 cells assessed as cell growth at 0.01 uM incubated for 48 hrs by sulforhodamine B assay relative to control; settings: SF-539, 48 h, read-out: Activity
[13] = tested on: KM12; test: Growth inhibition of human KM12 cells incubated for 48 hrs by sulforhodamine B assay; settings: KM12, 48 h
[14] = tested on: SK-MEL-5; test: Growth inhibition of human SK-MEL-5 cells assessed as cell growth at 1 uM incubated for 48 hrs by sulforhodamine B assay relative to control; settings: SK-MEL-5, 48 h, read-out: Activity
[15] = tested on: SF-268; test: Growth inhibition of human SF268 cells assessed as cell growth at 0.01 uM incubated for 48 hrs by sulforhodamine B assay relative to control; settings: SF-268, 48 h, read-out: Activity
[16] = tested on: OVCAR-4; test: Growth inhibition of human OVCAR4 cells assessed as cell growth at 0.1 uM incubated for 48 hrs by sulforhodamine B assay relative to control; settings: OVCAR-4, 48 h, read-out: Activity
[17] = tested on: HCC 2998; test: Growth inhibition of human HCC2998 cells incubated for 48 hrs by sulforhodamine B assay; settings: HCC 2998, 48 h; for TGI: read-out: pTGI (converted)
[18] = tested on: NCI-H23; test: Growth inhibition of human NCI-H23 cells incubated for 48 hrs by sulforhodamine B assay; settings: NCI-H23, 48 h
[19] = tested on: EKVX; test: Growth inhibition of human EKVX cells assessed as cell growth at 1 uM incubated for 48 hrs by sulforhodamine B assay relative to control; settings: read-out: Activity
[20] = tested on: DU-145; test: Growth inhibition of human DU145 cells assessed as cell growth at 100 uM incubated for 48 hrs by sulforhodamine B assay relative to control; settings: DU-145, 48 h, read-out: Activity
[21] = tested on: DU-145; test: Growth inhibition of human DU145 cells incubated for 48 hrs by sulforhodamine B assay; settings: DU-145, 48 h; for TGI: read-out: pTGI (converted)
[22] = tested on: LOX IMVI; test: Growth inhibition of human LOXIMVI cells assessed as cell growth at 0.01 uM incubated for 48 hrs by sulforhodamine B assay relative to control; settings: read-out: Activity
[23] = tested on: Hs-578T; test: Growth inhibition of human Hs 578T cells assessed as cell growth at 100 uM incubated for 48 hrs by sulforhodamine B assay relative to control; settings: read-out: Activity
[24] = tested on: PC-3; test: Growth inhibition of human PC3 cells assessed as cell growth at 0.01 uM incubated for 48 hrs by sulforhodamine B assay relative to control; settings: PC-3, 48 h, read-out: Activity
[25] = tested on: HL-60(TB); test: Growth inhibition of human HL-60(TB) cells incubated for 48 hrs by sulforhodamine B assay; settings: HL-60, 48 h
[26] = tested on: BT-549; test: Growth inhibition of human BT549 cells assessed as cell growth at 0.01 uM incubated for 48 hrs by sulforhodamine B assay relative to control; settings: BT-549, 48 h, read-out: Activity
[27] = tested on: KM12; test: Growth inhibition of human KM12 cells assessed as cell growth at 0.1 uM incubated for 48 hrs by sulforhodamine B assay relative to control; settings: KM12, 48 h, read-out: Activity
[28] = tested on: IGROV-1; test: Growth inhibition of human IGROV1 cells incubated for 48 hrs by sulforhodamine B assay; settings: IGROV-1, 48 h
[29] = tested on: SF-295; test: Growth inhibition of human SF295 cells assessed as cell growth at 0.1 uM incubated for 48 hrs by sulforhodamine B assay relative to control; settings: SF-295, 48 h, read-out: Activity
[30] = tested on: Hs-578T; test: Growth inhibition of human Hs 578T cells assessed as cell growth at 1 uM incubated for 48 hrs by sulforhodamine B assay relative to control; settings: read-out: Activity
[31] = read-out: LC50 (the source's name)
[32] = read-out: pLC50 (the source's name) (converted)

## c1ccc2[nH]c(-c3ccc(-c4nccc5c4[nH]c4ccccc45)cc3)nc2c1
[1]
  growth at 0.1 µM: 98%
[2]; read-out: GI50
  GI50: 1.93 µM
[2]; [31]
  CC50: 6.45 µM
[2]; read-out: TGI
  TGI: 3.53 µM
[2]; read-out: pGI50 (converted)
  GI50: 1.95 µM
[2]; [32]
  CC50: 6.46 µM
[2]; read-out: pTGI (converted)
  TGI: 3.55 µM
[3]
  growth at 100 µM: 42%
[4]
  growth at 0.01 µM: 98%
[5]
  growth at 100 µM: 49%
[6]
  growth at 100 µM: 64%
[7]
  growth at 1 µM: 88%
[8]
  growth at 1 µM: 97%
[9]
  growth at 0.1 µM: 98%
[10]; read-out: GI50
  GI50: 1.69 µM
[10]; [31]
  CC50: 6.32 µM
[10]; read-out: TGI
  TGI: 3.27 µM
[10]; read-out: pGI50 (converted)
  GI50: 1.7 µM
[10]; [32]
  CC50: 6.31 µM
[10]; read-out: pTGI (converted)
  TGI: 3.24 µM
[11]
  growth at 100 µM: 78%
[12]
  growth at 0.01 µM: 96%
[13]; read-out: LC50
  LC50: 5.29 µM
[13]; read-out: pGI50 (converted)
  GI50: 3.63 µM
[13]; read-out: pLC50 (converted)
  LC50: 52.5 µM
[13]; read-out: pTGI (converted)
  TGI: 15.8 µM
[14]
  growth at 1 µM: 94%
[15]
  growth at 0.01 µM: 97%
[16]
  growth at 0.1 µM: 98%
[17]; read-out: GI50
  GI50: 3.96 µM
[17]; read-out: LC50
  LC50: 5.31 µM
[17]; read-out: pGI50 (converted)
  GI50: 3.98 µM
[17]; read-out: pLC50 (converted)
  LC50: 53.7 µM
[17]
  TGI: 15.8 µM
[18]; [31]
  CC50: 8.7 µM
[18]; read-out: pGI50 (converted)
  GI50: 3.47 µM
[18]; [32]
  CC50: 87.1 µM
[18]; read-out: pTGI (converted)
  TGI: 17.8 µM
[19]
  growth at 1 µM: 93%
[20]
  growth at 100 µM: 72%
[21]; read-out: GI50
  GI50: 4.02 µM
[21]; [31]
  CC50: 5.74 µM
[21]; read-out: pGI50 (converted)
  GI50: 3.98 µM
[21]; [32]
  CC50: 57.5 µM
[21]
  TGI: 16.2 µM
[22]
  growth at 0.01 µM: 93%
[23]
  growth at 100 µM: 46%
[24]
  growth at 0.01 µM: 98%
[25]; read-out: GI50
  GI50: 2.03 µM
[25]; [31]
  CC50: > 1 µM
[25]; read-out: TGI
  TGI: 4.59 µM
[25]; read-out: pGI50 (converted)
  GI50: 2.04 µM
[25]; [32]
  CC50: > 100 µM
[25]; read-out: pTGI (converted)
  TGI: 4.57 µM
[26]
  growth at 0.01 µM: 91%
[27]
  growth at 0.1 µM: 96%
[28]; read-out: GI50
  GI50: 4.73 µM
[28]; [31]
  CC50: > 1 µM
[28]; read-out: pGI50 (converted)
  GI50: 4.68 µM
[28]; [32]
  CC50: > 100 µM
[28]; read-out: pTGI (converted)
  TGI: 22.4 µM
[29]
  growth at 0.1 µM: 97%
[30]
  growth at 1 µM: 91%

## c1ccc2c3c([nH]c2c1)C(c1ccc(C2NCCc4c2[nH]c2ccccc42)cc1)NCC3 (racemic)
[1]
  growth at 0.1 µM: 101%
[2]; read-out: GI50
  GI50: 1.31 µM
[2]; [31]
  CC50: 5.45 µM
[2]; read-out: TGI
  TGI: 2.67 µM
[2]; read-out: pGI50 (converted)
  GI50: 1.32 µM
[2]; [32]
  CC50: 5.5 µM
[2]; read-out: pTGI (converted)
  TGI: 2.69 µM
[3]
  growth at 100 µM: 93%
[4]
  growth at 0.01 µM: 100%
[5]
  growth at 100 µM: 84%
[6]
  growth at 100 µM: 90%
[7]
  growth at 1 µM: 36%
[8]
  growth at 1 µM: 43%
[9]
  growth at 0.1 µM: 95%
[10]; read-out: GI50
  GI50: 1.04 µM
[10]; [31]
  CC50: 4.92 µM
[10]; read-out: TGI
  TGI: 2.26 µM
[10]; read-out: pGI50 (converted)
  GI50: 1.05 µM
[10]; [32]
  CC50: 4.9 µM
[10]; read-out: pTGI (converted)
  TGI: 2.24 µM
[11]
  growth at 100 µM: 92%
[12]
  growth at 0.01 µM: 93%
[13]; read-out: GI50
  GI50: 1.07 µM
[13]; read-out: TGI
  TGI: 2.36 µM
[13]; read-out: pGI50 (converted)
  GI50: 1.07 µM
[13]; read-out: pTGI (converted)
  TGI: 2.34 µM
[14]
  growth at 1 µM: 94%
[15]
  growth at 0.01 µM: 92%
[16]
  growth at 0.1 µM: 91%
[17]; read-out: pGI50 (converted)
  GI50: 0.275 µM
[17]
  TGI: 1.29 µM
[18]; read-out: GI50
  GI50: 1.65 µM
[18]; [31]
  CC50: 6.83 µM
[18]; read-out: TGI
  TGI: 3.36 µM
[18]; read-out: pGI50 (converted)
  GI50: 1.66 µM
[18]; [32]
  CC50: 6.76 µM
[18]; read-out: pTGI (converted)
  TGI: 3.39 µM
[19]
  growth at 1 µM: 70%
[20]
  growth at 100 µM: -94%
[21]; [31]
  CC50: 5.16 µM
[21]; read-out: pGI50 (converted)
  GI50: 0.741 µM
[21]; [32]
  CC50: 5.13 µM
[21]
  TGI: 2.14 µM
[22]
  growth at 0.01 µM: 94%
[23]
  growth at 100 µM: -65%
[24]
  growth at 0.01 µM: 96%
[25]; read-out: GI50
  GI50: 1.13 µM
[25]; [31]
  CC50: 6.99 µM
[25]; read-out: TGI
  TGI: 2.81 µM
[25]; read-out: pGI50 (converted)
  GI50: 1.12 µM
[25]; [32]
  CC50: 6.92 µM
[25]; read-out: pTGI (converted)
  TGI: 2.82 µM
[26]
  growth at 0.01 µM: 87%
[27]
  growth at 0.1 µM: 95%
[28]; read-out: GI50
  GI50: 1.34 µM
[28]; [31]
  CC50: 5.99 µM
[28]; read-out: TGI
  TGI: 2.85 µM
[28]; read-out: pGI50 (converted)
  GI50: 1.35 µM
[28]; [32]
  CC50: 6.03 µM
[28]; read-out: pTGI (converted)
  TGI: 2.82 µM
[29]
  growth at 0.1 µM: 92%
[30]
  growth at 1 µM: 68%
